# What was measured:
# [1] = test system: cerebral edema-related side effects; assay: Clinical trial of glyburide in patients with brain tumors or metastasis undergoing radiation therapy; format: in vivo, human; conditions: 0.5-3.0 mg/day
# Protocol: (§1) In one arm, glyburide is administered as a bolus followed by continuous infusion.
# (§2) In a second arm, glyburide is administered via a transdermal patch or gel.
# (§3) In a third arm, glyburide is administered via injection, e.g., intravenous infusion.
# (§4) In a fourth arm, glyburide is administered orally.
# The study duration is weeks to months.
# Plasma levels of glyburide are determined weekly.
# The control group is matched for age, gender, and pre-radiation therapy stage.
# (§5) Each patient is monitored via blood sampling and MRI. A diagnostic contrast-enhanced MRI of the brain is performed prior to inclusion in the study.
# (§6) The following comparisons are made:
# (§7) Occurrence of one or more cerebral edema-related side effects: • Headache • Neck pain or stiffness • Nausea or vomiting • Dizziness • Irregular breathing • Vision loss or changes • Memory loss • Inability to walk • Difficulty speaking • Stupor • Seizures • Loss of consciousness
# [2] = test system: cerebral edema-related side effects; assay: Clinical trial of glyburide in patients undergoing CAR-T therapy, surgical excision of a brain tumor, and/or diagnosed with cerebral edema; format: in vivo, human; conditions: 0.5-3.0 mg/day
# Protocol: as §1, §2, §3, §4
# The study duration is days up to weeks.
# Plasma levels of glyburide are determined daily.
# The control group is matched for age, gender, and pre-operative stage.
# as §5, §6, §7
# migraine = assay: Clinical trial of glyburide for the prevention of migraine; format: in vivo, human; conditions: patients with a history of migraine; after 12 weeks of treatment; 0.5-3.0 mg/day
# Protocol: This is a randomized, double-blind, placebo-controlled, parallel Group, dose-ranging study to investigate the efficacy, safety and tolerability of glyburide for the prevention of migraine.
# as §1, §2, §3, §4
# The study duration is several days up to one week.
# Number of migraine headache days during weeks 9-12 of the treatment period.
# Change in Scores From Completeness of Response Survey (CORS) (Time Frame: Visit 1 (screening) and Visit 2 (study completion following 2-month treatment period)).
# CORS scores for Pain (0-4), Associated Symptoms (0-4), Limbic/Affective Symptoms (0-5), and Speed of Return to Functionality (1-5), represent outcome measures that are relevant to patients. Higher scores represent better treatment efficacy.
# The analysis compares CORS scores for usual treatment (pre-study) versus glyburide (study medication).
# [3] = Plasma pharmacokinetics of glyburide, bolus injection followed by 72 hours continuous infusion, healthy adult subjects; conditions: for Metabolite exposure versus administered dose of RP-1127: 0.4 mg/day vs 3.0 mg/day; for Metabolite level as share of the glyburide steady-state concentration: on average; for Average plasma metabolite concentration: through 72.5 hours after the initial bolus injection
# Protocol: The two groups are referred to as the 0.4 mg/day group and the 3.0 mg/day group, respectively.
# subjects with LHI = assay: Mortality study in 77 subjects with LHI given Cirara and/or tPA; format: in vivo, human; conditions: Group 1: tPA and a placebo; 22 subjects with LHI; tPA within 4.5 hours of stroke onset
# Protocol: As used herein, the term “placebo” refers to an ostensibly pharmaceutical formulation with no pharmaceutically active agent, or lacks the particular pharmaceutical agent of interest in a given study. In the examples disclosed herein, the placebo is lacking the SUR1-TRPM4 channel inhibitor. As used herein, the term “Cirara” refers to a commercially available intravenous formulation of glyburide. In this example, tPA was administered in accordance with current clinical guidelines for managing ischemic stroke within 4.5 hours of stroke onset (Jauch et al. 2013).
# The adverse outcome examined in the study was death. This was for exemplary purposes only and is not intended to be limiting.
Time plasma metabolite levels first detected after the initial bolus RP-1127 IV injection ([3]; 0.4 mg/day dose group) [h],Time plasma metabolite levels first detected after the initial bolus RP-1127 IV injection ([3]; 3.0 mg/day dose group) [h],Metabolite level as share of the glyburide steady-state concentration [3] [%],Average plasma metabolite concentration ([3]; 0.4 mg/day dose group) [ng/mL],Average plasma metabolite concentration ([3]; 3.0 mg/day dose group) [ng/mL],Molecule,Cerebral edema-related side effects compared with the control group [1],Cerebral edema-related side effects compared with the control group [2],Migraine outcome measures compared with the placebo group (migraine),Metabolite exposure versus administered dose of RP-1127 [3],Mortality Rate (subjects with LHI) [%]
,,,,,"COc1ccc(Cl)cc1C(=O)NCCc1ccc(S(=O)(=O)NC(=O)NC2CCCCC2)cc1 [Glyburide, glyburide]",significantly reduced or inhibited,significantly reduced or inhibited,significantly improved,,
1,0.167,18,,,COc1ccc(Cl)cc1C(=O)NCCc1ccc(S(=O)(=O)NC(=O)NC2CCC(O)CC2)cc1 (centres unmarked) [M1],,,,approximately proportional to the administered dose,
2,0.333,6,≤ 0.19,≤ 1.4,COc1ccc(Cl)cc1C(=O)NCCc1ccc(S(=O)(=O)NC(=O)NC2CCCC(O)C2)cc1 (centres unmarked) [M2],,,,approximately proportional to the administered dose,
,,,,,"tPA: Tissue plasminogen activator, a class of strong blood clot dissolving medicines",,,,,41
